Source: paper PMC7127579 (Febs Letters, 2006)

Molecular target: T1, FhePrx (recombinant 2-Cys peroxiredoxin of Fasciola hepatica) (Fasciola hepatica, UniProt P91883)
T1 sequence (P91883 1-194): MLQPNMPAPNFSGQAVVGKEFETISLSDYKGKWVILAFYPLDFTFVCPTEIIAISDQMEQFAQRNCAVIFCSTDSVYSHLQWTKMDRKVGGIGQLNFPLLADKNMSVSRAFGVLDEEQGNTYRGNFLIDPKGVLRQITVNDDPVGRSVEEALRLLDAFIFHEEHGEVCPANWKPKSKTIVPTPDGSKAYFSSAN
Assay: coupled NADPH oxidation assay
Type: biochemical
Conditions: E. coli thioredoxin and thioredoxin reductase, 0.25 mM NADPH, 1 mM EDTA, 5 mM potassium phosphate pH 7.0, 22 °C

| Compound | Km [µM] |
| --- | --- |
| CC(C)(OO)c1ccccc1 [Cumene hydroperoxide] | 12.7 |
| CC(C)(C)OO [t-Butyl hydroperoxide] | 18.6 |
